Results taken from patent publication US20120214736A1, “COMPOSITIONS AND METHODS FOR THE MODULATION OF JNK PROTEINS” (Isis Pharmaceuticals, Inc., priority 2006, published 2012).
e = 2'-O-(2-methoxyethyl) (MOE); d = 2'-deoxy (DNA)

How the values were obtained:
Format in all cases: cell-based
human JNK2 mRNA [1] = experiment: Northern analysis, human JNK2 mRNA in Jurkat cells (electroporation, dose response); settings: 1, 5 or 20 uM
Experimental: Jurkat cells were routinely cultured in RPMI Medium 1640 (Gibco/Life Technologies, Gaithersburg, Md.) supplemented with 20% fetal calf serum (Gibco/Life Technologies, Gaithersburg, Md.). Cells were routinely passaged by aspirating media that contained excess cells and replenishing with new media.
For electroporation, cells were diluted to 28×10^6 cells/mL and placed into 1 mm electroporation cuvettes. Electroporation is performed by treating with 1-20 μM oligonucleotide, at 160 Volts for 6 msec. The entire electroporated samples are then placed into 5 mL of 10% FBS/RPMI Medium 1640 in 100 mm plates. Plates are then left overnight at 37° C./5% CO2.
Each sample is then transferred to 15 mL conical tubes and spun down at 1200 rpm for 5 minutes followed by aspiration of the supernatant. Cells are then suspended in 5 mL PBS followed by a second centrifugation at 1200 rpm for 5 minutes followed by aspiration of the supernatant. Cells are then washed and lysed. Following the lysis step, total cellular RNA is then isolated using the RNEASY kit (Qiagen, Santa Clarita, Calif.) as described in other examples herein.
In accordance with the present invention, Jurkat cells were treated by electroporation with 1, 5 or 20 uM ISIS 101759 or the control oligonucleotide and mRNA levels of human JNK2 were quantitated by Northern analysis.

human JNK2 mRNA [2] = experiment: Northern analysis, human JNK2 mRNA in HuVEC cells (time course); settings: 100 nM; 0-72 hours
Experimental: The human umbilical vein endothilial cell line HuVEC was obtained from Clonetics (Clonetics Corporation Walkersville, Md.). HuVEC cells were routinely cultured in EBM (Clonetics Corporation Walkersville, Md.) supplemented with SingleQuots supplements (Clonetics Corporation, Walkersville, Md.). […] Cells were seeded into 100 mm dishes and incubated overnight at 37° C./5% CO2. (Falcon-Primaria #3872).
(§1) When cells reached 70% confluency, they were treated with oligonucleotide. For cells grown in 10 cm dishes, cells were washed once with 5 ml PBS and then treated with 5 ml of OPTI-MEM-1 containing 3 ul LIPOFECTIN (Invitrogen Corporation, Carlsbad, Calif.)/100 nM oligonucleotide/ml OPTI-MEM-1. For other oligonucleotide concentrations the oligonucleotide/Lipofectin ration was held constant. […] Cells were harvested 16-24 hours after oligonucleotide treatment.
In accordance with the present invention, HuVEC cells were treated with 100 nM ISIS 101759 or the control oligonucleotide and mRNA levels of human JNK2 were monitored over a time-course of 0-72 hours and quantitated by Northern analysis.

human JNK2 mRNA [3] = experiment: Northern analysis, human JNK2 mRNA in HeLa cells (dose response); settings: 10, 50 or 200 nM
Experimental: The human cervix epithelial adenocarcinoma cell line HeLa was obtained from the American Type Culture Collection (Manassas, Va.). HeLa cells were routinely cultured in Minimum essential medium (Eagle) with 2 mM L-glutamine and Earle's BSS adjusted to contain 1.5 g/L sodium bicarbonate, 0.1 mM non-essential amino acids, and 1.0 mM sodium pyruvate, 90%; fetal bovine serum, 10% at a temperature of 37° C. Cells were seeded into 100 mm dishes and incubated overnight at 37° C./5% CO2
as §1
In accordance with the present invention, HeLa cells were treated with 10, 50 or 200 nM ISIS 101759 or the control oligonucleotide and mRNA levels of human JNK2 were quantitated by Northern analysis.

With “GsCsTsCsAsGsTsGsGsAsCsAsTsGsGsAsTsGsAsG (GCTCAGTGGACATGGATGAG; sugars from the 5' end e5 d10 e5, all phosphorothioate, methylation of C not given here) [ISIS 101759]” the “expression of human JNK2 in Jurkat cells” value (human JNK2 mRNA [1]) was “capable of reducing the expression of human JNK2 in human Jurkat cells in a dose-dependent manner”, the “expression of human JNK2 in HuVEC cells” value (human JNK2 mRNA [2]) was “capable of reducing the expression of human JNK2” and the “expression of human JNK2 in HeLa cells” value (human JNK2 mRNA [3]) was “capable of reducing the expression of human JNK2 in human HeLa cells in a dose-dependent manner”.
